From US9688642B2, “Substituted pyrazines as GPR40 agonists” (Janssen Pharmaceutica NV, priority 2014, dated 2017)
pEC50: −log10 of the molar value. Where “and” joins values, the source holds several entries; their conditions need not be identical. Equal entries are not always repeated.

How the values were obtained:
human GPR40 = human GPR40 (Homo sapiens (Human), UniProt O14842); assay: GPR40 calcium flux assay, HEK293 cells stably expressing human GPR40; type: cell-based; conditions: transfected HEK293 cells stably expressing human GPR40; individual determinations listed; read-out: hGPR40 Ca2+ Assay EC50
Method: (§1) Compounds were tested in a calcium flux assay using transfected HEK293 cells stably expressing either human GPR40 or rat GPR40. Human GPR40 expressing cells were cultured in DMEM-High Glucose media supplemented with 10% fetal bovine serum, 1×L-Glutamine, 1× Penicillin/Streptomycin and 500 μg/mL G418. Rat GPR40 expressing cells were cultured in DMEM-High Glucose media supplemented with 10% fetal bovine serum and 1 μg/mL puromycin. Cells were plated into poly-D-lysine coated 384-well plates and cultured overnight in a 37° C. humidified tissue culture incubator under 5% CO2/90% O2 atmosphere. On the day of the experiment, the culture media was replaced with assay buffer (HBSS, 20 mM HEPES, 0.1% BSA) and the cells incubated at 37° C. for 1 h. Calcium-sensitive fluorescent dye (Fluo 8 No-Wash Calcium Dye, ABD Bioquest) was then added and the cells incubated for another 30 min at 37° C. followed by 15 min at room temperature while protected from the light. The cell plate and a plate of diluted compounds of Formula (I) were loaded into a fluorescent plate reader that added compounds onto the cells while measuring the fluorescence intensity of each well. The plate reader recorded fluorescence intensity at 1 second intervals for 8 min and provided the data for analysis in an Excel format. EC50 values were calculated using Prism (GraphPad) software.

rat GPR40 = rat GPR40 (Rattus norvegicus (Rat), UniProt Q8K3T4); assay: GPR40 calcium flux assay, HEK293 cells stably expressing rat GPR40; type: cell-based; conditions: transfected HEK293 cells stably expressing rat GPR40; individual determinations listed; read-out: rGPR40 Ca2+ Assay EC50
Method: as §1

Male SD rats = assay: Oral glucose tolerance test; type: in vivo, rat; conditions: dosed 30 min prior to oGTT (glucose 2 g/kg po), blood glucose AUC t=0 to t=120 minutes vs vehicle
Method: Male SD rats (200-250 g) were housed 2 per cage in a temperature-controlled room with a 12-hour light/dark cycle. They were allowed ad libitum access to water and fed with normal rodent chow. The night before the oral glucose tolerance test (oGTT), the rats were transferred to clean cages and fasted overnight. On the morning of the oGTT, the rats were weighed and randomized into groups based on fasted blood glucose and body weight. Rats were dosed with vehicle (0.5% methocel) or compounds thirty min prior to the oGTT (glucose, 2 g/kg, po). Blood was collected from the tail vein at 0, 10, 30, 60 and 120 minutes after glucose challenge to measure blood glucose; plasma was used to determine insulin levels.

human GPR40, sequence (O14842 whole entry): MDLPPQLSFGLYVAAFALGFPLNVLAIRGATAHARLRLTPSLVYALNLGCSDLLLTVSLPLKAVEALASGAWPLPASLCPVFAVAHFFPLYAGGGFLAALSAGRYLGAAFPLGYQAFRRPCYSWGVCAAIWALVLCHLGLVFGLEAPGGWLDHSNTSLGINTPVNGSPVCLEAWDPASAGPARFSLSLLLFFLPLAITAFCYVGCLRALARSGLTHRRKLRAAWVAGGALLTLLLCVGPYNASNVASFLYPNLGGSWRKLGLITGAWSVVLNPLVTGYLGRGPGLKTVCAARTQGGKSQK
rat GPR40, sequence (Q8K3T4 whole entry): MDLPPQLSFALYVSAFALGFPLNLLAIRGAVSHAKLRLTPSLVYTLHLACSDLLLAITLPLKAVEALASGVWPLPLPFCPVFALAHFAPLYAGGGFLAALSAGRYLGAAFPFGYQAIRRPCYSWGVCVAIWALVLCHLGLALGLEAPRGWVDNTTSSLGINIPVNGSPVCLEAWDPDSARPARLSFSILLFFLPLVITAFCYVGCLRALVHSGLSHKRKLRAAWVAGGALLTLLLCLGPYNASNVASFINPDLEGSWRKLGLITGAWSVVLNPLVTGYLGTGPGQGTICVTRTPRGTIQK

Compound	EC50 (human GPR40)	EC50 (rat GPR40)	Percent Lowering of Glucose (AUC compound vs. AUC Vehicle) (Male SD rats) [%]	pEC50 (human GPR40)	pEC50 (rat GPR40)
COc1cc(-c2ncc(COc3cccc([C@@H](CC(=O)O)C4CC4)c3)nc2CC(C)C)c(F)cn1 [Cpd 2, (3S)-3-cyclopropyl-3-[3-[[5-(5-fluoro-2-methoxy-4-pyridyl)-6-isobutyl-pyrazin-2-yl]methoxy]phenyl]propanoic acid]	2 nM (2×) and 1 nM and 3 nM	7 nM (2×) and 8 nM and 12 nM	87		
COc1ccc(F)c(-c2ncc(COc3cccc([C@@H](CC(=O)O)C4CC4)c3)nc2C=C(C)C)c1 [Cpd 8, (3S)-3-cyclopropyl-3-[3-[[5-(2-fluoro-5-methoxy-phenyl)-6-(2-methylprop-1-enyl)pyrazin-2-yl]methoxy]phenyl]propanoic acid]			91	8.00 and 8.05 and 7.85 and 8.10 and 8.22	7.41 and 7.54 and 7.12 and 7.30
COc1ccc(F)c(-c2ncc(COc3cccc([C@@H](CC(=O)O)C4CC4)c3)nc2OC2CCCC2)c1 [Cpd 13, (3S)-3-[3-[[6-(cyclopentoxy)-5-(2-fluoro-5-methoxy-phenyl)pyrazin-2-yl]methoxy]phenyl]-3-cyclopropyl-propanoic acid]	19 nM (2×) and 20 nM and 10 nM and 8 nM	31 nM and 30 nM (2×) and 53 nM and 33 nM	84		
COc1ccc(F)c(-c2ncc(COc3cccc([C@@H](CC(=O)O)C4CC4)c3)nc2C2=CCCC2(C)C)c1 [Cpd 30, (3S)-3-cyclopropyl-3-[3-[[6-(5,5-dimethylcyclopenten-1-yl)-5-(2-fluoro-5-methoxy-phenyl)pyrazin-2-yl]methoxy]phenyl]propanoic acid]			87		
COc1ccc(F)c(-c2ncc(COc3cccc([C@@H](CC(=O)O)C4CC4)c3)nc2-c2ccc(C(C)(C)C)s2)c1 [Cpd 43, (3S)-3-[3-[[6-(5-tert-butyl-2-thienyl)-5-(2-fluoro-5-methoxy-phenyl)pyrazin-2-yl]methoxy]phenyl]-3-cyclopropyl-propanoic acid]				7.82 and 7.92	7.09 and 7.26
COc1ccc(F)c(-c2ncc(COc3cccc([C@@H](CC(=O)O)C4CC4)c3)nc2NCC(C)(C)C)c1 [Cpd 44, (3S)-3-cyclopropyl-3-[3-[[6-(2,2-dimethylpropylamino)-5-(2-fluoro-5-methoxy-phenyl)pyrazin-2-yl]methoxy]phenyl]propanoic acid]				7.77 and 7.96	7.23 and 7.16
COc1ccc(F)c(-c2ncc(COc3cccc([C@@H](CC(=O)O)C4CC4)c3)nc2N2CCOCC2)c1 [Cpd 45, (3S)-3-cyclopropyl-3-[3-[[5-(2-fluoro-5-methoxy-phenyl)-6-morpholinopyrazin-2-yl]methoxy]phenyl]propanoic acid]				7.47	6.86 and 6.87
COc1cccc(-c2ncc(COc3cccc([C@@H](CC(=O)O)C4CC4)c3)nc2C2=CCCC2(C)C)c1F [Cpd 46, (3S)-3-cyclopropyl-3-[3-[[6-(5,5-dimethylcyclopenten-1-yl)-5-(2-fluoro-3-methoxy-phenyl)pyrazin-2-yl]methoxy]phenyl]propanoic acid]				6.89 and 6.90	6.20 and 6.10
COc1cc(-c2ncc(COc3cccc([C@@H](CC(=O)O)C4CC4)c3)nc2OCC(C)(C)C)c(F)cn1 [Cpd 47, (3S)-3-cyclopropyl-3-[3-[[6-(2,2-dimethylpropoxy)-5-(5-fluoro-2-methoxy-4-pyridyl)pyrazin-2-yl]methoxy]phenyl]propanoic acid]				8.52	7.89 and 7.85
COc1cc(-c2ncc(COc3cccc([C@@H](CC(=O)O)C4CC4)c3)nc2OCC2CC2)c(F)cn1 [Cpd 48, (3S)-3-cyclopropyl-3-[3-[[6-(cyclopropylmethoxy)-5-(5-fluoro-2-methoxy-4-pyridyl)pyrazin-2-yl]methoxy]phenyl]propanoic acid]				7.46 and 7.49	6.86 and 6.82
